Source: patent US20250282802A1, “P[…] AND METHODS” (priority 2020, published 2025)
Like-named read-outs stand apart in the source and are kept apart here.

Columns and labels:
Format in all cases: cell-based
[1] = system: Staphylococcus aureus ATCC 29213; assay: Antibacterial bioassay (MIC), Staphylococcus aureus; settings: CLSI
Method: (§1) Antibacterial bioassays. Susceptibility testing for the ESKAPE pathogens and Salmonella enterica LT2 was performed using a Kirby-Bauer method as outlined by the Clinical and Laboratory Standards Institute (CLSI). For rich media bioassays, Mueller Hinton Broth 2 (MH-2, Sigma-Aldrich, 90922) was used for all strains except 1% BHI was supplemented for Enterococcus faecalis ATCC 19433. For minimal media bioassays, glucose-MOPS minimal medium was used. Briefly, overnight bacterial cultures were sub-cultured and inoculated into 5 mL top agar (0.7% agar) for final concentration of 5×10^5 CFU/mL. Then, 20 μL of a compound 2-fold dilution series (200, 100, 50, 25, 12.5, 6.25 μM in water) was spotted on 6 mm diameter blank paper discs (BD BBL™ 231039). Control discs received 20 μL of 50 mg/mL kanamycin. Plates were incubated at 35° C. for 20-24 hours. […] Sensitivity of the IPTG-inducible phosphonate uptake strain WM6242 to pantaphos was tested using a disk diffusion assay. Plates containing growth medium were overlayed with 5 mL of top agar (0.7% agar) inoculated with 100 μL (OD600=0.8) of the phosphonate-specific E. coli indicator strain (WM6242) with or without addition of 1 mM IPTG. WM6242 is engineered with an IPTG-inducible, non-specific phosphonate uptake system (phnCDE). […]

[2] = system: Enterococcus faecalis ATCC 19433; assay: Antibacterial bioassay (MIC), Enterococcus faecalis; settings: ATCC19433, Mueller-Hinton 2 medium, CLSI, read-out: MIC, Rich medium
Method: as §1

CT26 (colon carcinoma) = assay: Cytotoxicity profiling (Alamar Blue), CT26
Method: (§2) FIG. 8. Cytotoxicity of pantaphos across various cancer cell lines. Assays were conducted as described (mBio. 2021 Feb. 2; 12(1):e03402-20), using the Alamar Blue method with 72-hour treatment using Raptinal ([…]) as Dead cell control; n=3. Cell seeding densities: CT26 (colon carcinoma) 2000 c/w; HOS (osteosarcoma) 2500 c/w; ES-2 (ovarian carcinoma), HCT-116 (colorectal carcinoma), A-549 (lung carcinoma), A-172 (glioblastoma), D54 (glioblastoma), U87 (glioblastoma), T98G (glioblastoma), SK-ML-28 (melanoma), MCF-7 (breast cancer), AM38 (glioblastoma) and MDA-MB-231 (breast cancer) 3000 c/w; U118MG (malignant glioma) 4000 c/w; HepG2 (liver cancer) 8000 c/w. c/w=cells per well. IC50 and Emax values shown in Table 6 were extracted from the raw data plotted in FIG. 8.
Cell culture cytotoxicity screening. The compounds were evaluated for their ability to kill cancer cell lines in culture, using HOS (osteosarcoma); ES-2 (ovarian cancer); HCT 116 (colon cancer); A549 (lung carcinoma); and A172 (glioma) cells. Human skin fibroblast cells (HFF-1) were also assessed. Cells were seeded (3000 cells well^−1 for ES-2, HCT 116, A549 and A172; 4000 cells well^−1 for HFF-1 and 2500 cells well^−1 for HOS) in a 96-well plate and allowed to attach overnight. Cells were treated with pantaphos in water. The concentrations of the tested compounds were 5 nM to 100 μM (1% water final; 100 μl well^−1). Raptinal (50 μM) was used as a dead control. On each plate, five technical replicates per compound were performed. 72 hours post-treatment, cell viability was assessed using the Alamar Blue method (http://www.bio-rad-antibodies.com/measuring-cytotoxicity-proliferation-spectrophotometry-fluorescence-alamarBlue.html). […] Conversion of Alamar Blue was measured with a plate reader (SpectraMax M3; Molecular Devices) by fluorescence (excitation wavelength: 555 nm; emission wavelength: 585 nm; cutoff 570 nm; autogain). Percentage death was determined by normalizing to water-treated cells and Raptinal-treated cells. […]

HOS (human osteosarcoma) = assay: Cell culture cytotoxicity screening (Alamar Blue), HOS; settings: 72 hours
Method: as §2, with “IC50 and Emax values shown in Table 6 were extracted from the raw data plotted in FIG. 8.” left out
(§3) Cell culture cytotoxicity screening. The compounds were evaluated for their ability to kill cancer cell lines in culture, using HOS (osteosarcoma); ES-2 (ovarian cancer); HCT 116 (colon cancer); A549 (lung carcinoma); and A172 (glioma) cells. Human skin fibroblast cells (HFF-1) were also assessed. […] 72 hours post-treatment, cell viability was assessed using the Alamar Blue method (http://www.bio-rad-antibodies.com/measuring-cytotoxicity-proliferation-spectrophotometry-fluorescence-alamarBlue.html). […] Conversion of Alamar Blue was measured with a plate reader (SpectraMax M3; Molecular Devices) by fluorescence (excitation wavelength: 555 nm; emission wavelength: 585 nm; cutoff 570 nm; autogain). […]

[3] = system: U118MG (malignant glioma); assay: Cytotoxicity profiling (Alamar Blue), U118MG; settings: Homo sapiens, U-118-MG, 72-hour treatment
Method: as §2, with “IC50 and Emax values shown in Table 6 were extracted from the raw data plotted in FIG. 8.” left out
as §3

SMILES: O=C(O)/C=C(\C(=O)O)C(O)P(=O)(O)O (stereo not drawn) [pantaphos, 2-(hydroxy(phosphono)methyl)maleate]
- MIC ([1]; ATCC29213, Mueller-Hinton 2 medium, read-out: MIC, Rich medium): > 200 µM
- MIC ([1]; ATCC29213, glucose-MOPS minimal medium, read-out: MIC, Minimal medium): > 200 µM
- MIC [2]: > 200 µM
- sensitivity of the cell line to the compound, in words (CT26 (colon carcinoma); CT26): sensitive
- IC50 (CT26 (colon carcinoma); CT26, Alamar Blue, 72-hour treatment (Table 6)): 3.38 ± 0.09 µM
- Emax (CT26 (colon carcinoma); Mus musculus, CT26, Alamar Blue, 72-hour treatment): 81 to 92%
- IC50 (HOS (human osteosarcoma)): 37 ± 6.28 µM
- Emax (HOS (human osteosarcoma); read-out: Emax = percentage cell death (converted)): 58%
- Emax [3]: 38 to 45%
